# Experimental data published in patent US12564631B2, “Phytosphingosine derivatives as adjuvants in immune stimulation” (Helmholtz-Zentrum für Infektionsforschung GmbH, priority 2020, dated 2026).
# “Also recorded” adds a separate entry of the source.
# How the values were obtained:
# CD4+ T cells = experiment: CFSE proliferation assay of CD4+ T cells after interaction with Ova/adjuvant-matured bone marrow derived DCs (APC); format: cell-based, mice; details: for capacity to induce antigen specific CD4+ T cell proliferation: DCs restimulated with Ovalbumin + 10 μg compound for 24 h, interaction with APC for 5 days; for stimulating effect of CD4+ T cells versus controls with only antigen Ova: CFSE loss up to 7 days, DCs activated with Ova + 10 μg compound, FIG. 4A/4B
# Excerpt: FIG. 3B: Cell proliferation tracked by CFSE dilution of CD4+ T cells after interaction with matured Antigen Presenting Cells (APC). With every cell division, the CFSE signal strength is approximately halved. The shown cell numbers indicate the ratio of proliferated live CD4+ T cells.
# (§1) FIG. 4: Effect after treatment with IPB 0964-1917—Cell proliferation tracked by CFSE loss of T cells after interaction with matured Antigen Presenting Cells (APC). With every cell division, the CFSE signal strength is reduced. The shown cell numbers indicate the ratio of proliferating T and B cells (7 steps are shown). (A) Numbers of CD4+ T cells are shown at different proliferation steps up to 7 days measuring the loss of CFSE. Naïve cells were treated with one of IPB1901-1912 together with DCs activated with Ova prior to the CFSE assay. (B) Numbers of CD4+ T cells are shown at different proliferation steps up to 7 days measuring the loss of CFSE. Naïve cells were treated with one of IPB2033-2044 together with DCs activated with Ova prior to the CFSE assay. (C) Numbers of CD8+ T cells are shown at different proliferation steps up to 7 days measuring the loss of CFSE. Naïve cells were treated with one of IPB1901-1912 together with DCs activated with Ova prior to the CFSE assay. (D) Numbers of CD8+ T cells are shown at different proliferation steps up to 7 days measuring the loss of CFSE. Naïve cells were treated with one of IPB2033-2044 together with DCs activated with Ova prior to the CFSE assay.
# (§2) In order to assess the properties of the inventive compounds in antigen-specific T and B cell stimulation, the compounds were administered to cultured bone marrow cells in a CFSE assay.
# (§3) Briefly, femurs and Tibiae of female 4-12 weeks old C57Bl6 (or BALB/c for TCR HA) were removed and purified from the surrounding muscle tissue (Kleenex tissues). Intact Bones were left in 70% ethanol for 2-5 min for disinfection. Both ends were cut with scissors and the bone marrow were flushed with PBS using a syringe with a 0.45 mm diameter needle, clusters were disintegrated by vigorous pipetting.
# (§4) In order to obtain activated antigen presenting dendritic cells (DCs), bone marrow cells were cultured with GM-CSF. On Day 0, cells were seeded in a concentration of 2×10^6 cells per 100 mm dish (bacteriological petri dishes) in 10 ml RPMI-10 (100 U Pen/100 μg Strept/2 mM Glutamin/50 μm ß-Mercaptoethanol/10% FCS heat-inactivated and filtered 0.22 μm Filter) containing 200 Units GM-CSF. On Day 3 another 10 ml RPMI-10 containing 200 U GM-CSF were added to the plates. On Day 6 half of the culture supernatants (10 ml) were collected, centrifuged and the cell pellet resuspended in 10 ml fresh RPMI-10/200 U GM-CSF and given back into the original plates.
# (§5) Subsequently, the DCs were incubated with Ovalbumin (as antigen) alone or co-administered with known adjuvants, such as α-GalCerMPEG, aßGalCerMPEG or TLR2/6 ligand (BPPcysMPEG), or the novel phytosphingosine derivatives of the present invention. The activation of DCs was controlled by FACS analysis of different CD markers, such as CD40, CD54, CD80, CD86, CD83, MHCI and MHCII.
# (§6) The effect of the compounds of the present invention was then ascertained via co-incubation of naïve T or B cells, obtained from mice (OTI or OTII mice) with previous exposure to the Ova antigen, with DCs that had been treated with the compounds of the invention.
# (§7) Naïve T cells were derived from LN/spleen from OTI or OTII mice. The MagniSort™ Mouse CD4 naïve or CD8 naïve T cell Enrichment Kit is designed for the magnetic separation of CD4 or CD8 naïve T cells by negative selection from mouse spleens or lymph nodes utilizing a biotinylated antibody cocktail and streptavidin-coated magnetic beads. Undesired cells are bound by antibody (Anti-Mouse CD8 or CD4/CD11b CD19/CD24/CD44/CD45R(B220)/CD49b(Integrin α 2)/Ly-6G (Gr-1)/γδ TCR/TER-119) and then magnetic beads that, when placed in a magnetic field, leave CD4 or CD8 naïve T cells untouched and free in solution. […]
# splenocytes = experiment: Unspecific proliferation assay of splenocytes ([3H]thymidine incorporation); format: cell-based, mice; details: for Stimulation index (SI): splenocytes restimulated 96 h with 1, 10 and 20 μg/ml compound, ratio of [3H]-thymidine uptake of stimulated versus non-stimulated samples, FIG. 2E/2F; for induction of unspecific proliferation in splenocytes: summary statement
# Procedure: FIG. 2: Analysis of unspecific proliferative responses of murine cells stimulated without or with enhanced concentrations of the Phytosphingosine-compounds. Splenocytes from mice were re-stimulated for 96 h with different concentrations of adjuvant (1, 10 and 20 μg/ml). The results are presented by are expressed (A-C) as counts per minute (cpm) and (D-F) stimulation index (SI) being the ratio of [^3H]-thymidine uptake of stimulated versus non-stimulated samples. (A) and (D) show data for α-GalCer controls, (B) and (E) show data for IPB1901-1910, and (C) and (F) show data for IPB1911-1917.
# In order to assess the properties of the inventive compounds in antigen-unspecific immune response stimulation the compounds were administered to splenocytes in an established proliferation assay.
# For the proliferation assay, splenocytes (5×10^6 cells/ml) are seeded at 100 μl per well in a U-bottomed 96-well microtiter plate (Sarstedt Inc., Newton, N.C.) and cultured in quadruplicates 4 days in the presence of enhanced concentrations of adjuvant (1, 10 and 20 μg/ml)), 5 μg/ml of Concanavalin A (max); or medium alone. Eighteen hours before harvesting, 1 μCi of [3H]thymidine (Amersham International, Freiburg, Germany) is added to each well. Cells are harvested on paper filters (Filtermat A; Wallac, Freiburg, Germany) using a cell harvester (Inotech, Wohlen, Switzerland) and the incorporation of [3H] thymidine into the DNA of proliferating cells is determined using a scintillation counter (Wallac 1450, Micro-Trilux).
# CD8+ T cells = experiment: CFSE proliferation assay of CD8+ T cells after interaction with Ova/adjuvant-matured bone marrow derived DCs (APC); format: cell-based, mice; details: for effect to induce antigen specific CD8+ T cell proliferation: DCs restimulated with Ovalbumin + 10 μg compound for 24 h, interaction with APC for 5 days, FIG. 3C; for stimulating effect of CD8+ T cells versus controls with only antigen Ova: CFSE loss up to 7 days, DCs activated with Ova + 10 μg compound, FIG. 4C/4D
# Excerpt: FIG. 3C: Cell proliferation tracked by CFSE dilution of CD8+ T cells after interaction with matured Antigen Presenting Cells (APC). With every cell division, the CFSE signal strength is approximately halved. The shown cell numbers indicate the ratio of proliferated live CD8+ T cells
# as §1, §2, §3, §4, §5, §6, §7
# [1] = tested on: Th1-type / Th2-type response; details: literature cited in background; cited from earlier work
# CD19+ B cells = experiment: CFSE proliferation assay of CD19+ B cells after interaction with Ova/adjuvant-matured bone marrow derived DCs (APC); format: cell-based, mice; details: FIG. 3A; for capacity to induce antigen specific CD19+ B cell proliferation: DCs restimulated with Ovalbumin + 10 μg compound for 24 h, interaction with APC for 5 days; for toxicity against B cells: effect not comparable to adjuvant controls
# Procedure: FIG. 3A: Cell proliferation tracked by CFSE dilution of B cells after interaction with matured Antigen Presenting Cells (APC). With every cell division, the CFSE signal strength is approximately halved. The observed cell numbers indicate the ratio of proliferating viable CD19+ B cells.
# as §2, §3, §4, §5, §6
# CFSE staining of the CD4+ or CD8+ naïve T cells is then carried out according to standard procedures. Subsequently, 2-5×10^4 DCs (as mature antigen presenting cells APCs) are incubated with 4×10^5 CFSE+ T cells (OTI or OTII) per well (ratio DC/T cells is […]). A CFSE proliferation assay is then conducted, using on Day +5 or on Day +7 a FACS analysis (CFSE/LD/CD4/CD8/CD19/Thy1.1), providing a cell count for the desired cell type based on CFSE. With every cell division, the CFSE signal strength is approximately halved. The cells marked with CFSE can therefore be used to determine the proliferation of CD19+ B cells, CD4+ or CD8+ T cells in response to treatment with activated DCs, that were treated with or without the compounds of the invention.
# As is shown in FIG. 3A, cell proliferation of B cells is tracked by CFSE dilution after interaction with APCs. With every cell division, the CFSE signal strength is approximately halved. Therefore, the compounds of the invention show an effect on inducing antigen specific CD19+ cell proliferation.
# On day −1, mature DCs were restimulated with Ovalbumin (antigen) co-administered with 10 μg of the different novel phytosphingosine derivatives (0964-1917) or with positive controls (α-GalCerMPEG, aßGalCerMPEG, CDA or BPPcysPEGdef) for 24 h.
SMILES,capacity to induce antigen specific CD4+ T cell proliferation (CD4+ T cells; FIG. 3B),Stimulation index (SI) (splenocytes),induction of unspecific proliferation in splenocytes (splenocytes),effect to induce antigen specific CD8+ T cell proliferation (CD8+ T cells),stimulating effect of CD4+ T cells versus controls with only antigen Ova (CD4+ T cells),toxicity against B cells (CD19+ B cells),stimulating effect of CD8+ T cells versus controls with only antigen Ova (CD8+ T cells),other results
CCCCCCCCCCCCCCCCCCCCCCCC(=O)N(CC(=O)NCCC(=O)O)[C@@H](CO[C@H]1OC(CO)[C@H](O)C(O)C1O)[C@H](O)[C@H](O)CCCCCCCCCCCCCC (stereo partly drawn) [IPB 1910],high capacity; also recorded: beneficial capacity,ca. 2,beneficial induction of unspecific proliferation,strong effect; also recorded: beneficial effect,,,,
CCCCCCCCCCCCCC[C@@H](O)[C@@H](O)[C@H](CO[C@H]1O[C@H](CO)[C@H](O)[C@H](O)[C@H]1O)NC(=O)CCCCCCCCCCc1ccc(F)cc1 [7DW8-5],,,,,,,,type of response elicited (Th1 / Th2) [1]: elicit a Th1 response
CCCCCCCCCCCCCCCCCC(=O)N(CC(=O)NCCC(=O)OC(C)(C)C)[C@@H](CO[C@H]1OC(CO)[C@H](O)C(O)C1O)[C@H](O)[C@H](O)CCCCCCCCCCCCCC (stereo partly drawn) [IPB 1909],high capacity; also recorded: beneficial capacity,,,strong effect; also recorded: beneficial effect,,,,capacity to induce antigen specific CD19+ B cell proliferation (CD19+ B cells): particularly high capacity; also recorded: beneficial capacity
CCCCCCCCCCCCCCCCCCCCCCCC(=O)N(CC(=O)NCC(OC)OC)[C@@H](CO[C@H]1OC(CO)[C@H](O)C(O)C1O)[C@H](O)[C@H](O)CCCCCCCCCCCCCC (stereo partly drawn) [IPB 1911],high capacity; also recorded: beneficial capacity,,beneficial induction of unspecific proliferation,strong effect; also recorded: beneficial effect,,,,
CCCCCCCCCCCCCCNC(=O)CN(C(=O)[C@@H](Cc1ccccc1)NC(C)=O)[C@@H](CO[C@H]1OC(CO)[C@H](O)C(O)C1O)[C@H](O)[C@H](O)CCCCCCCCCCCCCC (stereo partly drawn) [IPB 1904],,,beneficial induction of unspecific proliferation,,,,,capacity to induce antigen specific CD19+ B cell proliferation (CD19+ B cells): particularly high capacity; also recorded: beneficial capacity
CCCCCCCCCCCCCC[C@@H](O)[C@@H](O)[C@H](CO[C@H]1OC(CO)[C@H](O)C(O)C1O)N(CC(=O)NCCCCCCCCCCCC)C(=O)CCCCCCCCCCCCC (stereo partly drawn) [IPB 1901],,4,beneficial induction of unspecific proliferation,,stimulating effect of CD4+ T cells beyond controls,may show some toxicity against B cells,stimulating effect of CD8+ T cells beyond controls,
CCCCCCCCCCCCCC[C@@H](O)[C@@H](O)[C@H](CO[C@H]1OC(CO)[C@H](O)C(O)C1O)N(CC(=O)NCc1ccccc1)C(=O)CCCCCCC (stereo partly drawn) [IPB 1902],,,beneficial induction of unspecific proliferation,,stimulating effect of CD4+ T cells beyond controls,may show some toxicity against B cells,stimulating effect of CD8+ T cells beyond controls,"toxicity against CD4+ T cells (CD4+ T cells; FIG. 3B, no improved effect over adjuvant controls): may show some toxicity against CD4+ T cells"
CCCCCCCCCCCCCC[C@@H](O)[C@@H](O)[C@H](CO[C@H]1OC(CO)[C@H](O)C(O)C1O)N(CC(=O)NC1CCCCC1)C(=O)CCCCCCCCCCC (stereo partly drawn) [IPB 1903],high capacity; also recorded: beneficial capacity,> 10,beneficial induction of unspecific proliferation,,stimulating effect of CD4+ T cells beyond controls,may show some toxicity against B cells,stimulating effect of CD8+ T cells beyond controls,
CCCCCCCCCCCCCCCCCCCCCCCC(=O)N[C@@H](CO[C@H]1O[C@H](CO)[C@H](O)[C@H](O)[C@H]1O)[C@H](O)[C@H](O)CCCCC [OCH],,,,,,,,type of response elicited (Th1 / Th2) [1]: elicit a Th2-type response
